Results: EP0227593A1, “Use of chelating agents” (THE HOSPITAL FOR SICK CHILDREN, priority 1985, dated 1987)

Experiments:
[1] = system: bone marrow cells; assay: Surface marker analysis by immunofluorescence on bone marrow cells at conclusion of the 20-day treatment; type: in vivo, human; conditions: conclusion of 20-day treatment course
Protocol: Cell Culture Procedure: 2 x 10⁵ T-depleted cells were incubated with 40 % RPMI-methylcellulose, 20 % PHA-LCM, 10 % FCS, irradiated feeder cells (10⁵/dish), 16.6 % RPMI in 35 mm Petri dishes. The culture dishes were placed into a specialized modular incubator chamber (Billups-Rosenberg, Del Mar, CA) in a humidified atmosphere of 5 % O₂, 5 % CO₂ and balanced nitrogen for 3-6 days. After 2 days of incubation, the culture dishes were carefully examined. Colonies were counted at day 4. A cluster of more than 20 cells was defined as a colony. Individual colonies were plucked from the culture plates and smeared on microscope slides for further evaluation, using Wright stain and non-specific esterase staining. For control, 2 x 10⁵ irradiated feeder cells were cultured in the same assay system in each experiment to exclude their potential for colony formation Immunocytochemical Method: The cell surface antigens of air dried smears were detected using monoclonal antibodies and intestinal alkaline phosphatase, as previously described. This assay was performed to detect surface antigens on patients' PB and BM smears and colonies plucked from cultures. The slides were counter- stained in hematoxylin for light microscopy and the presence of surface antigen was indicated as bright red granular cellular inclusions. Morphologic details were well preserved, and a very high degree of correlation between morphology and surface antigen expression was observed. The intensity of staining was defined as strong (+++), moderate (++) and weak (+). Immunofluorescence Method: The cell surface phenotype was determined by indirect cell-surface fluorescence: A fluorescein-conjugated goat anti-mouse IgG (FAb')₂ was used as second antibody. The labelling was performed at room temperature in the presence of 0.2 % sodium azide. The percentage of cells with surface fluorescence was determined by counting cells stained in three replicate wells using an inverted phase-fluorescent microscope. Monoclonal Antibodies: The following monoclonal antibodies were used in these studies: anti-OKIa (Ortho Diagnostic Systems Inc. Raritan, NJ) to detect HLA-D framework antigen, anti-MY-7, anti-Mol and anti-MY-4 (coulter Immunology) to identify myelomonocytic markers, anti-Ig. anti-BA1, anti-BA2, anti-B1, and anti-B4 (Becton-Dickinson) to recognize cells of the B-cell lineage, anti-J5 (Coulter Immunology) to recognize cells bearing common ALL (CALLA) antigen and anti-Leu-1 and anti-Leu-4 (Coulter Immunology) to recognize cells of the T-cell lineage.
Immunologic surface markers were determined by immunofluorescence before and at the conclusion of the 20-day treatment course on bone marrow cells.

[2] = system: HL-60 cells; assay: Colony growth of HL-60 cells; type: cell-based, human
Protocol: HL-60 cells, a promyeloctic leukemia cell line originally developed by Dr. R. Gallo, NIH, were used. Cells were grown in RPMI supplemented with 10 % heat inactivated fetal calf serum (FCS, Flow Laboratories, Rockville, MO) and 2 mM glutamine (Gibco, Berkely, CA), at densities ranging from 1-2 x 10⁵/ml to 1-10⁶/ml, in a 5 % CO₂ humidified atmosphere at 37°C.
HL-60 cells (10⁴/ml) were plated in 0.8 % methycellulose in RPMI-1640 medium supplemented with 20 % heat inactivated (56°C, 30 min) fetal calf serum at a final volume of 1 ml/culture plate. Cultures were set up in duplicates and maintained at 37°C in a 5 % CO₂ humidified atmosphere. Deferoxamine was dissolved in iron-free RPMI culture medium and added at the initiation of culture at different concentrations (1-10 µM). Colonies were counted at 7 days using an inverted microscope. A cluster of more than 20 cells was defined as a colony. Individual colonies were plucked from culture plates spread on glass slides and morphologically assessed after preparation with Wright's stain and non-specific esterase in the presence of fluoride (29). The self renewal capacity of cells was assessed according to McCulloch et al (30). RPMI-1640 medium was added to culture dishes for 2 hrs; the contents of each dish were then transferred into a tube, centrifuged and washed with medium three times. Cells from each dish were counted separately, and viability was assessed by trypan blue dye exclusion. Cells (1x10⁴/ml) from each dish were recultured in 0.8 % methylcellulose as before.

[3] = system: L-1210 tumour cells; assay: L-1210 tumour growth in mice; type: in vivo; conditions: day 8
Protocol: One hour prior to kill on day 8 the mice received one ip injection of 0.002 mCi of 3H-thymidine per g body weight. Cells were harvested from the peritoneal cavity, the volume of ascites measured and the cell counts determined in a coulter counter, after lysis of red cells with zap-oglobin, for calculation of total tumour cell numbers. Also, of each sample cell smears were done, Feulgen stained and autoradiographed, whereby the number and percentage of labelled cells was determined and used as a measure for proliferating cells.

[4] = system: Lewis lung carcinoma; assay: Tumour growth and metastases of Lewis lung carcinoma in mice; type: in vivo; conditions: 11 injections
Protocol: Female C57B16 mice (10 mice/group, 18-22 g body weight) were i.m. injected into the left hind leg with 0.1 ml of a tumour cell suspension of Lewis lung carcinoma (day 0).
Nine groups of animals were investigated. The test compounds were s.c. administered as follows: physiological saline: once daily for eleven days starting from day 0 up to day 10. DFO: 0.5 ml in distilled water in a dose of 10 and 30 mg/kg once daily for eleven days, on day 0 up to day 10 after tumour inocculation. 10-EDAM: 0.5 ml in distilled water in a dose of 3 and 6 mg/kg, once daily on days 1, 3, 5, 7 and 9 after tumour inocculation.
Both hind legs were removed from the body, weighed, and the difference between the tumour bearing and the tumour free leg was taken as the tumour weight of one idividual mouse.
Lungs were filled up with Pelikan-ink via the trachea, fixed in Fekete-solution and metastases (white spot on black back-ground) on the lung surface were counted microscopically.

[5] = DFO 400 mg/kg/d s.c. minipump from day 2, Ara-C 200 mg/kg once ip on day 6

## CC(=O)N(O)CCCCCNC(=O)CCC(=O)N(O)CCCCCNC(=O)CCC(=O)N(O)CCCCCN [DFO, desferioxamine methanesulfonate]
[1]
  % Positive Cells B4: 10%
  % Positive Cells BA-1: 0%
  % Positive Cells BA-2: 0%
  % Positive Cells Ia: 75%
  % Positive Cells MY-4: 20%
  % Positive Cells MY-7: 20%
  % Positive Cells Mo1: 20%
  % Positive Cells sIg: 0%
[2]; 10 µm DFO
  inhibition of HL-60 colony proliferation: 100%
[2]; Homo sapiens, HL-60, 3.5 µM DFO, read-out: inhibition of HL-60 colony proliferation
  inhibition at 3.5 µM: 50%
[3]; 3H-thymidine labelled cells, same doses as Table 12
  proportions of proliferating cells: 28 % ± 8%
[3]; [5]
  Number of cells in the peritoneal cavity % of control: 95%
  Number of cells in the peritoneal cavity x̄ ± SD: 3.49 ± 1.75 10^8
  Number of proliferating cells in peritoneal cavity % of control: 80%
  Number of proliferating cells in peritoneal cavity x̄ ± SD: 0.98 ± 0.64 10^8
[4]; group 2: DFO 10 mg/kg s.c.
  Number of lung metastases % of control: 103%
  Number of lung metastases x̄ ± SD: 69 ± 26
  Tumour weight % of control: 100%
  Tumour weight x̄ ± SD: 7.56 ± 0.32 g
[4]; group 3: DFO 30 mg/kg s.c.
  Number of lung metastases % of control: 78%
  Number of lung metastases x̄ ± SD: 52 ± 16
  Tumour weight % of control: 106%
  Tumour weight x̄ ± SD: 7.99 ± 0.42 g
